{"source": "patent US11464763B2", "about": "“Parasiticidal compositions comprising an isoxazoline active agent, methods and uses thereof” (BOEHRINGER INGELHEIM ANIMAL HEALTH USA INC., priority 2011, dated 2022)", "key": {"Linognathus vituli": {"system": "Linognathus vituli", "experiment": "Pour-on efficacy against Linognathus vituli (sucking lice) in cattle (Example 16)", "type": "in vivo", "method": "The efficacy of two pour-on formulations of the invention comprising isoxazoline Compound A at doses of 2.5 mg/kg and 10 mg/kg were tested against natural and induced infestations with Linognathus vituli (sucking lice) in cattle compared with an untreated control. Four healthy head of cattle weighing between 100 to 300 kg were used in each study group. Cattle in Group 1 were untreated (control). Cattle in Group 2 were treated on Day 0 with a pour-on formulation comprising Compound A at a concentration of 2.5% (w/v) in DES at a dose of 2.5 mg/kg; and cattle in Group 3 were treated on Day 0 with a pour-on formulation comprising Compound A at a concentration of 10% (w/v) in DES at a dose of 10 mg/kg. The formulation was applied by measuring the required amount of the solution into a marked disposable syringe and applying the material evenly along the mid-line of the back of each animal from the withers to the tail head.\nLive lice (adults plus nymphs) were counted on days 2, 7, 14, 21, 28, 35, 42, 49 and 56 by counting lice on six selected sites approximately 5 cm×15 cm on the body surface of the animal by direct examination. In the absence of lice on the selected sites, a thorough body search was conducted. The total louse counts per animal were determined by summation of the live louse numbers at each site per animal. Tables 17A and 17B below show the efficacy of the two pour-on formulations against Linognathus vituli over 56 days. As the tables show, both pour-on formulations were efficacious through at least day 56 of the study with 100% efficacy observed starting day 7. Efficacy on day 2 of the study was greater than 90% in each of the study groups. The long lasting efficacy against Linognathus vituli from one topical treatment is unexpected and surprising."}, "Ctenocephalides felis": {"system": "Ctenocephalides felis", "experiment": "Spot-on efficacy at 1 mg/kg against Ctenocephalides felis fleas in cats protected from grooming (Example 8)", "type": "in vivo", "details": "cats with protective neck collar", "method": "In another study, the efficacy of four spot-on formulations comprising Cmpd. A dosed at 1 mg/kg body weight in different carrier vehicles against fleas in cats was studied. Five cats each were allocated to five Treatment Groups: Group 1—Untreated; Group 2—0.833% (w/v) Cmpd. A in dimethylsulfoxide (DMSO); Group 3—0.833% (w/v) Cmpd. A in DMI; Group 4—0.833% (w/v) Cmpd. A in Transcutol®; and Group 5—0.833% (w/v) Cmpd. A in DES. […] the corresponding spot-on formulation by application of the formulation directly on the skin in the midline of the neck, between the base of the skull and the shoulder blades in a single spot using a 1 mL syringe. Infestations with approximately 100 C. felis were conducted weekly on Days 7, 14, 21, 28 and 35. […]"}}, "data": [{"molecule": "O=C(CNC(=O)c1ccc(C2=NOC(c3cc(Cl)cc(C(F)(F)F)c3)(C(F)(F)F)C2)c2ccccc12)NCC(F)(F)F", "note": "(stereo not drawn) [Compound A, 4-[5-[3-chloro-5-(trifluoromethyl)phenyl]-4,5-dihydro-5-(trifluoromethyl)-3-isoxazolyl]-N-[2-oxo-2-[(2,2,2-trifluoroethyl)amino]ethyl]-1-naphthalanecarboxamide]", "values": [{"measurement": "% Reduction", "setting": "Linognathus vituli; Group 2: pour-on 2.5% in DES, 2.5 mg/kg, Day 2", "value": 92, "unit": "%"}, {"measurement": "% Reduction", "setting": "Linognathus vituli; Group 2: pour-on 2.5% in DES, 2.5 mg/kg, Day 7", "value": 100, "unit": "%"}, {"measurement": "% Reduction", "setting": "Linognathus vituli; Group 2: pour-on 2.5% in DES, 2.5 mg/kg, Day 14", "value": 100, "unit": "%"}, {"measurement": "% Reduction", "setting": "Linognathus vituli; Group 2: pour-on 2.5% in DES, 2.5 mg/kg, Day 21", "value": 100, "unit": "%"}, {"measurement": "% Reduction", "setting": "Linognathus vituli; Group 2: pour-on 2.5% in DES, 2.5 mg/kg, Day 28", "value": 100, "unit": "%"}, {"measurement": "% Reduction", "setting": "Linognathus vituli; Group 3: pour-on 10% in DES, 10 mg/kg, Day 2", "value": 98, "unit": "%"}, {"measurement": "% Reduction", "setting": "Linognathus vituli; Group 3: pour-on 10% in DES, 10 mg/kg, Day 7", "value": 100, "unit": "%"}, {"measurement": "% Reduction", "setting": "Linognathus vituli; Group 3: pour-on 10% in DES, 10 mg/kg, Day 14", "value": 100, "unit": "%"}, {"measurement": "% Reduction", "setting": "Linognathus vituli; Group 3: pour-on 10% in DES, 10 mg/kg, Day 21", "value": 100, "unit": "%"}, {"measurement": "% Reduction", "setting": "Linognathus vituli; Group 3: pour-on 10% in DES, 10 mg/kg, Day 28", "value": 100, "unit": "%"}, {"measurement": "efficacy against Linognathus vituli", "setting": "Linognathus vituli; both pour-on formulations, starting day 7 through at least day 56", "value": 100, "unit": "%"}, {"measurement": "efficacy against Linognathus vituli", "setting": "Linognathus vituli; each of the study groups, day 2", "value": "greater than 90%"}, {"measurement": "% Reduction", "setting": "Linognathus vituli; live lice counts, Group 2: pour-on 2.5% (w/v) in DES, 2.5 mg/kg, Day 35", "value": 92, "unit": "%"}, {"measurement": "% Reduction", "setting": "Linognathus vituli; live lice counts, Group 2: pour-on 2.5% (w/v) in DES, 2.5 mg/kg, Day 42", "value": 100, "unit": "%"}, {"measurement": "% Reduction", "setting": "Linognathus vituli; live lice counts, Group 2: pour-on 2.5% (w/v) in DES, 2.5 mg/kg, Day 49", "value": 100, "unit": "%"}, {"measurement": "% Reduction", "setting": "Linognathus vituli; live lice counts, Group 2: pour-on 2.5% (w/v) in DES, 2.5 mg/kg, Day 56", "value": 100, "unit": "%"}, {"measurement": "% Reduction", "setting": "Linognathus vituli; live lice counts, Group 3: pour-on 10% (w/v) in DES, 10 mg/kg, Day 35", "value": 98, "unit": "%"}, {"measurement": "% Reduction", "setting": "Linognathus vituli; live lice counts, Group 3: pour-on 10% (w/v) in DES, 10 mg/kg, Day 42", "value": 100, "unit": "%"}, {"measurement": "% Reduction", "setting": "Linognathus vituli; live lice counts, Group 3: pour-on 10% (w/v) in DES, 10 mg/kg, Day 49", "value": 100, "unit": "%"}, {"measurement": "% Reduction", "setting": "Linognathus vituli; live lice counts, Group 3: pour-on 10% (w/v) in DES, 10 mg/kg, Day 56", "value": 100, "unit": "%"}, {"measurement": "% Reduction", "setting": "Ctenocephalides felis; Group 2: 0.833% in DMSO, Day 1", "value": 43.16, "unit": "%"}, {"measurement": "% Reduction", "setting": "Ctenocephalides felis; Group 2: 0.833% in DMSO, Day 2", "value": 60.54, "unit": "%"}, {"measurement": "% Reduction", "setting": "Ctenocephalides felis; Group 2: 0.833% in DMSO, Day 8", "value": 98.48, "unit": "%"}, {"measurement": "% Reduction", "setting": "Ctenocephalides felis; Group 2: 0.833% in DMSO, Day 15", "value": 95.91, "unit": "%"}, {"measurement": "% Reduction", "setting": "Ctenocephalides felis; Group 2: 0.833% in DMSO, Day 22", "value": 97.90, "unit": "%"}, {"measurement": "% Reduction", "setting": "Ctenocephalides felis; Group 2: 0.833% in DMSO, Day 29", "value": 90.10, "unit": "%"}, {"measurement": "% Reduction", "setting": "Ctenocephalides felis; Group 2: 0.833% in DMSO, Day 36", "value": 74.49, "unit": "%"}, {"measurement": "% Reduction", "setting": "Ctenocephalides felis; Group 3: 0.833% in DMI, Day 1", "value": 37.90, "unit": "%"}, {"measurement": "% Reduction", "setting": "Ctenocephalides felis; Group 3: 0.833% in DMI, Day 2", "value": 88.97, "unit": "%"}, {"measurement": "% Reduction", "setting": "Ctenocephalides felis; Group 3: 0.833% in DMI, Day 8", "value": 99.62, "unit": "%"}, {"measurement": "% Reduction", "setting": "Ctenocephalides felis; Group 3: 0.833% in DMI, Day 15", "value": 99.32, "unit": "%"}, {"measurement": "% Reduction", "setting": "Ctenocephalides felis; Group 3: 0.833% in DMI, Day 22", "value": 98.80, "unit": "%"}, {"measurement": "% Reduction", "setting": "Ctenocephalides felis; Group 3: 0.833% in DMI, Day 29", "value": 92.66, "unit": "%"}, {"measurement": "% Reduction", "setting": "Ctenocephalides felis; Group 3: 0.833% in DMI, Day 36", "value": 79.54, "unit": "%"}, {"measurement": "% Reduction", "setting": "Ctenocephalides felis; Group 4: 0.833% in Transcutol, Day 1", "value": 76.32, "unit": "%"}, {"measurement": "% Reduction", "setting": "Ctenocephalides felis; Group 4: 0.833% in Transcutol, Day 2", "value": 83.12, "unit": "%"}, {"measurement": "% Reduction", "setting": "Ctenocephalides felis; Group 4: 0.833% in Transcutol, Day 8", "value": 98.95, "unit": "%"}, {"measurement": "% Reduction", "setting": "Ctenocephalides felis; Group 4: 0.833% in Transcutol, Day 15", "value": 99.01, "unit": "%"}, {"measurement": "% Reduction", "setting": "Ctenocephalides felis; Group 4: 0.833% in Transcutol, Day 22", "value": 96.19, "unit": "%"}, {"measurement": "% Reduction", "setting": "Ctenocephalides felis; Group 4: 0.833% in Transcutol, Day 29", "value": 95.41, "unit": "%"}, {"measurement": "% Reduction", "setting": "Ctenocephalides felis; Group 4: 0.833% in Transcutol, Day 36", "value": 86.61, "unit": "%"}, {"measurement": "% Reduction", "setting": "Ctenocephalides felis; Group 5: 0.833% in DES, Day 1", "value": 54.40, "unit": "%"}, {"measurement": "% Reduction", "setting": "Ctenocephalides felis; Group 5: 0.833% in DES, Day 2", "value": 82.77, "unit": "%"}, {"measurement": "% Reduction", "setting": "Ctenocephalides felis; Group 5: 0.833% in DES, Day 8", "value": 98.82, "unit": "%"}, {"measurement": "% Reduction", "setting": "Ctenocephalides felis; Group 5: 0.833% in DES, Day 15", "value": 99.26, "unit": "%"}, {"measurement": "% Reduction", "setting": "Ctenocephalides felis; Group 5: 0.833% in DES, Day 22", "value": 99.82, "unit": "%"}, {"measurement": "% Reduction", "setting": "Ctenocephalides felis; Group 5: 0.833% in DES, Day 29", "value": 92.43, "unit": "%"}, {"measurement": "% Reduction", "setting": "Ctenocephalides felis; Group 5: 0.833% in DES, Day 36", "value": 88.11, "unit": "%"}]}]}
